# Source: article PMC10301432, “Antiplasmodial, Trypanocidal, and Genotoxicity In Vitro Assessment of New Hybrid α,α-Difluorophenylacetamide-statin Derivatives” (Pharmaceuticals, 2023)
# Like-named read-outs stand apart in the source and are kept apart here.
# Columns and labels:
# [1] = Salmonella/microsome assay, TA97; details: Salmonella enterica serovar Typhimurium, S. typhimurium TA97 without S9 mix, pH 7.4
# Procedure: (§1) Salmonella enterica serovar Typhimurium (S. typhimurium) strains TA97, TA98, TA100, TA104 and TA102 from the authors’ stock were used as described in the mutagenicity assay.
# (§2) To determine the cytotoxic effects, after 30 min pre-incubation, the assay mixtures were diluted in 0.9% NaCl (w/v) to obtain a suspension containing 2 × 10^2 cells/mL. […] The plates were then incubated at 37 °C for 24 h and the colonies counted. All the experiments were conducted in triplicate and were repeated at least twice. Statistical differences between the groups were analyzed by a two-way ANOVA (p < 0.05) and Tukey’s post hoc test.
# [2] = Salmonella/microsome assay, TA100; details: Salmonella enterica serovar Typhimurium, S. typhimurium TA100 without S9 mix, pH 7.4
# [3] = Salmonella/microsome assay, TA98; details: Salmonella enterica serovar Typhimurium, S. typhimurium TA98 without S9 mix, pH 7.4
# Procedure: as §1, §2
# [4] = system: Salmonella enterica serovar Typhimurium TA102
# [5] = system: human hepatoma cell line (HepG2); assay: in vitro; assay type: cell-based; details: preliminary cytotoxicity, HepG2
# How it was run: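 Cells grown in MEM with 10% FBS at 37 °C, 5% CO2, and seeded at 1 × 10^4/well. After treatment, viability read by WST-1 over 3 h incubation, absorbance at 440 nm.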
SMILES,CC50 at 30 min [1] [µM],CC50 at 30 min [2] [µM],CC50 at 30 min [3] [µM],"revertant His+ colonies TA102 ([4]; +S9, 3 µM)","revertant His+ colonies TA102 ([4]; +S9, 15 µM)","revertant His+ colonies TA102 ([4]; +S9, 30 µM)","revertant His+ colonies TA102 ([4]; +S9, 150 µM)","revertant His+ colonies TA102 ([4]; +S9, 300 µM)","revertant His+ colonies TA102 ([4]; +S9, 1500 µM)","revertant His+ colonies TA102 ([4]; −S9, 3 µM)","revertant His+ colonies TA102 ([4]; −S9, 15 µM)","revertant His+ colonies TA102 ([4]; −S9, 30 µM)","revertant His+ colonies TA102 ([4]; −S9, 150 µM)","revertant His+ colonies TA102 ([4]; −S9, 300 µM)","revertant His+ colonies TA102 ([4]; −S9, 1500 µM)",lack of toxic events up to [5]
"CC(=O)Nc1ccc(Br)cc1C(F)(F)C(=O)NCC[C@@H]1C[C@H](CC(=O)OC(C)(C)C)OC(C)(C)O1 [Compound 13d, tert-Butyl 2-((4R,6R)-6-(2-(2-(2-acetamido-5-bromophenyl)-2,2-difluoroacetamido)ethyl)-2,2-dimethyl-1,3-dioxan-4-yl)acetate]",1490 ± 36.5,120 ± 14.1,1260 ± 46.8,153 ± 13,155 ± 20,160 ± 11,162 ± 31,176 ± 11,Cytotoxic,356 ± 7,Cytotoxic,–,–,–,–,–
"CC(=O)Nc1ccc(C)cc1C(F)(F)C(=O)NCC[C@@H]1C[C@H](CC(=O)OC(C)(C)C)OC(C)(C)O1 [Compound 13b, tert-Butyl 2-((4R,6R)-6-(2-(2-(2-acetamido-5-methylphenyl)-2,2-difluoroacetamido)ethyl)-2,2-dimethyl-1,3-dioxan-4-yl)acetate]",> 1500,> 1500,> 1500,365 ± 37,386 ± 42,403 ± 19,396 ± 31,372 ± 40,399 ± 18,388 ± 20,393 ± 18,423 ± 11,503 ± 23,543 ± 39,560 ± 41,up to 400 μM
"CC(=O)Nc1ccccc1C(F)(F)C(=O)NCC[C@@H]1C[C@H](CC(=O)OC(C)(C)C)OC(C)(C)O1 [Compound 13a, tert-Butyl 2-((4R,6R)-6-(2-(2-(2-acetamidophenyl)-2,2-difluoroacetamido)ethyl)-2,2-dimethyl-1,3-dioxan-4-yl)acetate]",–,–,–,384 ± 32,399 ± 32,407 ± 21,411 ± 46,448 ± 52,501 ± 20,458 ± 19,435 ± 22,433 ± 7,380 ± 12,345 ± 48,Cytotoxic,–
"CC(=O)Nc1ccc(Cl)cc1C(F)(F)C(=O)NCC[C@@H]1C[C@H](CC(=O)OC(C)(C)C)OC(C)(C)O1 [Compound 13c, tert-Butyl 2-((4R,6R)-6-(2-(2-(2-acetamido-5-chlorophenyl)-2,2-difluoroacetamido)ethyl)-2,2-dimethyl-1,3-dioxan-4-yl)acetate]",–,–,–,392 ± 8,390 ± 12,402 ± 24,401 ± 66,403 ± 12,430 ± 14,373 ± 50,386 ± 35,387 ± 33,386 ± 5,400 ± 24,450 ± 32,up to 400 μM
